According to patent publication US10508077B2 (FORMA Therapeutics, Inc., priority 2015, dated 2019):
Counter-ions that a name gives are not always drawn.

Columns and labels:
[1] = biological target: T1, Full length human recombinant HDAC8 protein (Homo sapiens, UniProt Q9BY41); experiment: In vitro histone deacetylase assay: enzymatic HDAC8 assay, electrophoretic mobility shift; format: biochemical; conditions: substrate RHKK(Ac)-NH2, 1 nM enzyme, compounds listed under IC50 range headings
T1 construct: Full length human recombinant HDAC8 protein was expressed in baculoviral system; made in house
T1 sequence (Q9BY41 1-377): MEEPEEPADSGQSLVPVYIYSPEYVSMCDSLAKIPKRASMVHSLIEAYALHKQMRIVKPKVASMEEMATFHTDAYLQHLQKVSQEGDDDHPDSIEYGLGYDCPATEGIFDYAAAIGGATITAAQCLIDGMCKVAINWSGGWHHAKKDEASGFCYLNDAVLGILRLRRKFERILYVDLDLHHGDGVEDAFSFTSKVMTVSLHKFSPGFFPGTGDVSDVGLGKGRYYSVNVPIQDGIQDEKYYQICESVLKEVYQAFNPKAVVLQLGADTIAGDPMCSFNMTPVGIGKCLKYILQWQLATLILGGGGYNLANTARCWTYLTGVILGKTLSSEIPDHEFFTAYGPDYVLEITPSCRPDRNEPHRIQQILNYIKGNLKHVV
Outline: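 Baculovirus-expressed full-length human HDAC8 (1 nM) deacetylated 2 µM fluorescent RHKK(Ac)-NH2 peptide in pH 7.5 HEPES, 1% DMSO, at 25 °C, with 12 compound concentrations at 3× spacing. SDS-quenched; product and substrate resolved by microfluidic electrophoresis, P/(S+P) converted to percent inhibition, and IC50 obtained by 4-parameter fit.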

[2] = biological target: T2, Recombinant N-terminal GST tag full-length human HDAC8 (Homo sapiens, UniProt Q9BY41); experiment: HDAC8 probe binding assay, time resolved fluorescence (TRF); conditions: fluorescein labeled pan-HDAC inhibitor probe, 16 hours incubation, compounds listed under IC50 range headings
T2 construct: Recombinant N-terminal GST tag full-length human HDAC8; purchased SignalChem H90-30G-1000; host or cells: Sf9 insect cells (baculovirus)
T2 sequence (Q9BY41 1-377): T1 sequence (Q9BY41 1-377)
Outline: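 TR-FRET probe displacement using GST-tagged full-length human HDAC8 (Sf9-expressed, 2.5 nM) with 1.5 nM fluorescein-labelled pan-HDAC inhibitor probe and anti-GST terbium, in HEPES pH 7.5 buffer with GSH, BGG, Triton X-100. Compounds 25 μM–1.3 nM, 10-point; 16 h at room temperature. IC50 from 4-parameter fit of % inhibition versus no-enzyme and DMSO controls.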

Row | SMILES | IC50 [1] [nM] | IC50 [2] [nM]
1 | Cc1cc(CN2C[C@@H]3C[C@H]2CN3c2ccccc2/C=C/C(=O)NO)n(C)n1 [Example I-317, (E)-3-(2-((1S,4S)-5-((1,3-dimethyl-1H-pyrazol-5-yl)methyl)-2,5-diazabicyclo[2.2.1]heptan-2-yl)phenyl)-N-hydroxyacrylamide] | < 1000 | ≤ 1000
2 | CC(C)(C)OC(=O)N1CCCCC12CCN(c1ccccc1/C=C/C(=O)NO)C2 (centres unmarked) [Example I-543, tert-butyl (E)-2-(2-(3-(hydroxyamino)-3-oxoprop-1-en-1-yl)phenyl)-2,6-diazaspiro[4.5]decane-6-carboxylate] | < 1000 | ≤ 1000
3 | COc1ccc(CN2CCN(c3ccccc3/C=C/C(=O)NO)C(=O)C2)cc1 [Example I-293, (E)-N-hydroxy-3-(2-(4-(4-methoxybenzyl)-2-oxopiperazin-1-yl)phenyl)acrylamide] | < 1000 | ≤ 1000
4 | CC(=O)NC1CCN(c2ccccc2/C=C/C(=O)NO)C1 (centres unmarked) [Example I-307, (E)-3-(2-(3-acetamidopyrrolidin-1-yl)phenyl)-N-hydroxyacrylamide] | < 1000 | ≤ 1000
5 | O=C(/C=C/c1ccccc1NC(=O)c1ncsc1Oc1ccccc1)NO [Example I-539, N-{2-[(1E)-2-(hydroxycarbamoyl)eth-1-en-1-yl]phenyl}-5-phenoxy-1,3-thiazole-4-carboxamide] | < 1000 | ≤ 1000
6 | O=C(/C=C/c1ccccc1NCc1cccc(CCCO)c1)NO [Example I-48, (E)-N-hydroxy-3-(2-((3-(3-hydroxypropyl)benzyl)amino)phenyl)acrylamide] | < 1000 | 1000 to 100000
7 | O=C(NO)/C(F)=C/c1ccccc1NC(=O)c1ccccc1Oc1ccccc1 [Example I-325, (Z)—N-(2-(2-fluoro-3-(hydroxyamino)-3-oxoprop-1-enyl)phenyl)-2-phenoxybenzamide hydrochloride] | < 1000 | ≤ 1000
8 | CS(=O)(=O)c1cccc(CNc2ccccc2/C=C/C(=O)NO)c1 [Example I-100, (E)-N-hydroxy-3-(2-((3-(methylsulfonyl)benzyl)amino)phenyl)acrylamide] | < 1000 | ≤ 1000
9 | O=C(/C=C/c1ccccc1N1CCN(Cc2cccnc2)CC1)NO [Example I-179, (E)-N-hydroxy-3-(2-(4-(pyridin-3-ylmethyl)piperazin-1-yl)phenyl)acrylamide] | < 1000 | ≤ 1000
10 | O=C(/C=C/c1cc(C(F)(F)F)ccc1NC(=O)c1ccccc1Oc1ccc(F)cc1)NO [Example I-556, 2-(4-fluorophenoxy)-N-{2-[(1E)-2-(hydroxycarbamoyl)eth-1-en-1-yl]-4-(trifluoromethyl)phenyl}benazmide] | < 1000 | ≤ 1000
11 | O=C(/C=C/c1ccccc1NC(=O)c1ccccc1Oc1ccc(C(F)(F)F)cc1)NO [Example I-303, (E)-N-(2-(3-(hydroxyamino)-3-oxoprop-1-en-1-yl)phenyl)-2-(4-(trifluoromethyl)phenoxy)benzamide] | < 1000 | ≤ 1000
12 | Cc1cc(C)n(Cc2ccc(C(=O)Nc3ccccc3/C=C/C(=O)NO)cc2)n1 [Example I-288, (E)-4-((3,5-dimethyl-1H-pyrazol-1-yl)methyl)-N-(2-(3-(hydroxyamino)-3-oxoprop-1-en-1-yl)phenyl)benzamide] | < 1000 | ≤ 1000
13 | O=C(/C=C/c1ccccc1N1CCC(c2ccccc2)C1=O)NO (centres unmarked) [Example I-262, (E)-N-hydroxy-3-(2-(2-oxo-3-phenylpyrrolidin-1-yl)phenyl)acrylamide] | < 1000 | ≤ 1000
14 | O=C(/C=C/c1ccccc1NC(=O)c1cnc(-c2cccnc2)s1)NO [Example I-76, (E)-N-(2-(3-(hydroxyamino)-3-oxoprop-1-en-1-yl)phenyl)-2-(pyridin-3-yl)thiazole-5-carboxamide] | < 1000 | ≤ 1000
15 | CN1CCN(c2ccccc2/C=C/C(=O)NO)CC1 [Example I-326, (E)-N-hydroxy-3-(2-(4-methylpiperazin-1-yl)phenyl)acrylamide] | < 1000 | ≤ 1000
16 | O=C(/C=C/c1ccccc1NC(=O)c1ccc(OC(F)F)cc1)NO [Example I-70, (E)-4-(difluoromethxoy)-N-(2-(3-(hydroxyamino)-3-oxoprop-1-en-1-yl)phenyl)benzamide] | < 1000 | ≤ 1000
17 | O=C(/C=C/c1ccccc1C(=O)N1CCC(F)(F)C1)NO [II-28, (E)-3-(2-(3,3-difluoropyrrolidine-1-carbonyl)phenyl)-N-hydroxyacrylamide] | < 1000 | ≤ 1000
18 | O=C(/C=C/c1ccccc1NCc1ccc2nccn2c1)NO [Example I-103, (E)-N-hydroxy-3-(2-((imidazo[1,2-a]pyridin-6-ylmethyl)amino)phenyl)acrylamide] | < 1000 | ≤ 1000
19 | CCC(Oc1ccccc1)C(=O)Nc1ccccc1/C=C/C(=O)NO (centres unmarked) [Example I-281, (E)-N-(2-(3-(hydroxyamino)-3-oxoprop-1-en-1-yl)phenyl)-2-phenoxybutanamide] | < 1000 | ≤ 1000
20 | Cc1cc(C(=O)N2CCN(c3ccccc3/C=C/C(=O)NO)CC2)n(C)n1 [Example I-298, (E)-3-(2-(4-(1,3-dimethyl-1H-pyrazole-5-carbonyl)piperazin-1-yl)phenyl)-N-hydroxyacrylamide] | < 1000 | ≤ 1000
21 | O=C(/C=C/c1ccccc1NC(=O)c1ccccc1Oc1cccnc1)NO [Example I-314, (E)-N-(2-(3-(hydroxyamino)-3-oxoprop-1-en-1-yl)phenyl)-2-(pyridin-3-yloxy)benzamide] | < 1000 | ≤ 1000
22 | Cc1cc(CNc2ccccc2/C=C/C(=O)NO)n(C)n1 [Example I-94, (E)-3-(2-(((1,3-dimethyl-1H-pyrazol-5-yl)methyl)amino)phenyl)-N-hydroxyacrylamide] | < 1000 | ≤ 1000
23 | O=C(/C=C/c1ccccc1NCc1ccc(-c2nnn[nH]2)cc1)NO [Example I-96, (E)-3-(2-((4-(1H-tetrazol-5-yl)benzyl)amino)phenyl)-N-hydroxyacrylamide] | < 1000 | ≤ 1000
24 | O=C(/C=C/c1ccccc1NC(=O)c1ccccc1Oc1ccc(Cl)cc1)NO [Example I-268, (E)-2-(4-chlorophenoxy)-N-(2-(3-(hydroxyamino)-3-oxoprop-1-en-1-yl)phenyl)benzamide] | < 1000 | ≤ 1000
25 | O=C(/C=C/c1ccccc1NC(=O)c1cnc(-c2ccccc2F)s1)NO [Example I-311, (E)-2-(2-fluorophenyl)-N-(2-(3-(hydroxyamino)-3-oxoprop-1-en-1-yl)phenyl)thiazole-5-carboxamide] | < 1000 | ≤ 1000
